One block for each compound: values may come before it.
Assays:
LTB4R2 = target: T1, LTB4R2 (Homo sapiens, UniProt Q9NPC1); test: NanoBRET screen HiBiT-LTB4R2 in HEK293; type: binding
T1 construct: purchased Promega (in-house HiBiT-GPCR construct library, NanoBRET)
T1 sequence (Q9NPC1 1-358): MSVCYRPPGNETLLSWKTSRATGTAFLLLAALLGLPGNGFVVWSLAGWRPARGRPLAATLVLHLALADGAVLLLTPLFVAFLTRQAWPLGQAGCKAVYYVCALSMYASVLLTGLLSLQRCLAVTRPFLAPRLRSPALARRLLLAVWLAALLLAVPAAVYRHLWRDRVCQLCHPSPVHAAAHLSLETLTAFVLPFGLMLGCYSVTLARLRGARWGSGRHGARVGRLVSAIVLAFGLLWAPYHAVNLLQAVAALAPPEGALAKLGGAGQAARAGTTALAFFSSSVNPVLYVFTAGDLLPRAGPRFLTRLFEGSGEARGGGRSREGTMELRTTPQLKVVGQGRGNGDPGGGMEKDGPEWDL
Experimental: (§1) Each tracer candidate was screened across the entire library of HiBiT-GPCR constructs using NanoBRET as the detection modality. As depicted in Figure 4A, the specificity of interactions was evaluated through decrease in BRET due to competitive displacement of a bound tracer by excess parental compound. Each tracer was analyzed for binding to each HiBiT-GPCR fusion in the absence and in the presence of competing parental compound. Briefly, HEK293 cells were transfected with HiBiT-GPCR constructs diluted into promoterless DNA to reduce expression and maximize translocation to the cell surface. Each tracer candidate was then screened at concentrations of 1 μM and 0.1 μM across cells expressing these fusions. Cells were treated for 1.5 h with tracer either alone or in the presence of 20 μM competing parental compound (i.e., control). BRET was measured upon addition of purified LgBiT and subsequent complementation with HiBiT genetically fused to a GPCR. The specificity of interactions was assessed through a decrease in BRET signal due to competitive displacement of the bound tracer. To further gauge the robustness of these interactions, the fold response over the control (i.e., BRETtracer/BRETcontrol) was calculated. We chose a 1.5-fold response, which translates to ≥7-fold signal over noise as the minimal threshold required to score an interaction as positive. […]. Below we highlight the screening results obtained for our exemplary fluorescent tracers based on Clozapine, Amitriptyline and AZD1283.
(§2) HiBiT-GPCR DNA constructs were diluted in 10 mM Tris pH 8 to a final concentration of 0.01 μg/μL, arrayed in 96-well plates and stored at −20 °C. For transfection, HEK293 cells were suspended in Opti-MEM (without phenol red) supplemented with 2% fetal bovine serum (Seradigm) and 100 units/mL penicillin–streptomycin (Gibco) at a final concentration of 220,000 cells/mL and dispensed into white 96-well plates at 90 μL/well. Subsequent transfections and screens were carried using an Agilent Bravo Automated Liquid Handling Platform. First, the 96-well HiBiT DNA arrays were diluted 25-fold in Opti-MEM (without serum or phenol red) to a final concentration of 0.0004 μg/μL and 20 μL of the diluted DNAs were transferred into new 96-well plates. Next, promoterless carrier DNA (1 μg/μL) was diluted 25-fold (0.04 μg/μL) and then dispensed into the diluted arrays at 20 μL/well. Following brief mixing, Viafect transfection reagent (Promega) diluted 16-fold into Opti-MEM was dispensed into the plates at 40 μL/well. After mixing by pipetting, plates were incubated for 10 min on the pipetting station deck. The DNA-transfection reagent complexes were then added to plates containing cells. To facilitate the screen, 10 μL of DNA-transfection reagent complexes were added in duplicates to the top 4 and bottom 4 rows, resulting in two identical 48-well arrays per plate. Plates with transfected cells were incubated for 18–20 h at 37 °C/5% CO2. A screen of each tracer across the entire library using two different concentrations requires duplicate plates of transfected cells. Depending on the number of tracers being screened, transfections can be scaled up using the same ratios. The next day, for each tracer, four 20× screening solutions in tracer dilution buffer (Promega) were prepared: two duplicates at final concentration of 20 μM and two duplicates at a final concentration of 2 μM. A competing unmodified compound was added to one of each duplicate at a final concentration of 400 μM. The four resulting solutions were diluted 4-fold in Opti-MEM without serum or phenol red to generate 5× solutions (5 µM and 0.5 µM tracer +/− 100 μM competing compound). To screen the library, a BioTek MultiFlo FX liquid dispenser was used to dispense 22.5 µL of tracer solution to the top 4 rows and 22.5 µL tracer + competing compound solution to the 4 bottom rows. Plates were briefly mixed on an orbital shaker and incubated for 1.5 h at room temperature. […]

F2RL2 = target: T2, F2RL2 (Homo sapiens, UniProt O00254); test: NanoBRET screen HiBiT-F2RL2 in HEK293; type: binding
T2 construct: purchased Promega (in-house HiBiT-GPCR construct library, NanoBRET)
T2 sequence (O00254 22-374): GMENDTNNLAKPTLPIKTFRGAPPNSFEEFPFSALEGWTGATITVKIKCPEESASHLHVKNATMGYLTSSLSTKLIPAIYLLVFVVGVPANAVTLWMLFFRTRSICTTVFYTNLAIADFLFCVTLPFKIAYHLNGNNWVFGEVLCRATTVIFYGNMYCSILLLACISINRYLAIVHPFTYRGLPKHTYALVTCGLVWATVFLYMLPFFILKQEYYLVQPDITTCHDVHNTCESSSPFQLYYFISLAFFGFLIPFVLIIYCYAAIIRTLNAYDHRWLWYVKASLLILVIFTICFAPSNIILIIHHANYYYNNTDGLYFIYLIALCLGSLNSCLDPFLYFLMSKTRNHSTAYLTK
Experimental: as §1, §2

NanoBRET Fold Response (LTB4R2; 0.1μM tracer): 1.02 | NanoBRET Fold Response (LTB4R2; 1μM tracer): 1.02 | NanoBRET Fold Response (F2RL2; 0.1μM tracer): 1.00 | NanoBRET Fold Response (F2RL2; 1μM tracer): 1.03
Compound: COc1ccc2c(n1)c(CCNC(C)=O)cn2CCNC(=O)CCc1ccc2n1[B-](F)(F)[N+]1=C(c3ccc[nH]3)C=CC1=C2 [Azamelatonin-1-NB590]

Compound: CC(C)N(CC[C@H](c1ccccc1)c1cc(CCNC(=O)c2ccc(CNC(=O)CCc3ccc4n3[B-](F)(F)[N+]3=C(c5ccc[nH]5)C=CC3=C4)cc2)ccc1O)C(C)C [Tolterodine-BZ-NB590]
NanoBRET Fold Response (LTB4R2; LTB4R2, tracer 0.1μM): 0.91 | NanoBRET Fold Response (LTB4R2; LTB4R2, tracer 1μM): 0.95 | NanoBRET Fold Response (F2RL2; F2RL2, tracer 0.1μM): 1.01 | NanoBRET Fold Response (F2RL2; F2RL2, tracer 1μM): 1.04

Compound: CN1CCN(C2=Nc3cc(Cl)ccc3Nc3ccc(CNC(=O)CCOCCOCCOCCOCCNC(=O)CCc4ccc5n4[B-](F)(F)[N+]4=C(c6ccc[nH]6)C=CC4=C5)cc32)CC1 [Clozapine-b-2-NB590]
NanoBRET Fold Response (LTB4R2; LTB4R2, 0.1μM tracer): 0.97 | NanoBRET Fold Response (LTB4R2; LTB4R2, 1μM tracer): 1.16 | NanoBRET Fold Response (F2RL2; F2RL2, 0.1μM tracer): 1.01 | NanoBRET Fold Response (F2RL2; F2RL2, 1μM tracer): 1.02
